Experiments:
[1] = tested on: common carotid artery; assay: Local application via administration catheter in the denuded common carotid artery, dynamic scintigraphy and autoradiography; settings: for course of the locally administered activity at the administration site after blood flow is restored: examination period of 1 hour, dynamic scintigrams, right common carotid artery
From the text: b) Local Application of the Tc-99m Complex of NH2-Asp-Gly-Gly-Cys-Gly-Cys-Phe-(D-Trp)-Leu-Asp-Ile-Ile-Trp-OH as well as Tc-99m-pertechnetate in the Common Carotid Artery of White New Zealand Rabbits
In anesthetized white New Zealand rabbits (3.5 kg), the right common carotid artery was opened up. A 2 F balloon catheter (from the Baxter Company) was inserted cranially through a cut, and a vascular area approximately 5 cm long was denuded twice with 0.9% saline after the catheter was inflated. Then, an administration catheter (coronary perfusion/infusion catheter, dispatch 3.0, Baxter Company) was fed to the above-denuded area. […] Then, the catheter was removed, and the blood flow after closure of the common carotid artery dextra was restored using a suture. Dynamic scintigrams were prepared over a period of 1 hour with the aid of a commercial gamma camera. Then, the animals were sacrificed, both carotids were removed, and an autoradiography was prepared.

[2] = tested on: arteriosclerotic plaque; assay: In vivo and in vitro concentration in WHHL rabbits (gamma camera imaging, autoradiography of the aorta); settings: 2 mCi (1 ml) via an ear vein
Method: In Vivo and In Vitro Concentration of the ^99mTc-Complex of […] in WHHL Rabbits 2 mCi (1 ml) of the […]Tc-complex that is produced according to 5a) is administered to an anesthetized WHHL rabbit (Rompun/Ketavet 1:2) via an ear vein. WHHL rabbits have a high LDL level in the blood because of a deficient or defective LDL receptor and therefore create spontaneously arteriosclerotic vascular alterations. During the test period of 5 hours after the administration, static images of various exposure times and of various positions were produced with a gamma camera ([…]). 5 hours after the administration, the rabbit was sacrificed, and both an autoradiography of the aorta and a Sudan III coloring were carried out.

Molecule | site of accumulation after being flushed from the vessel wall ([1]; anterior summation scintigram 0-1 hour after local administration (FIG. 1)) | course of the locally administered activity at the administration site after blood flow is restored [1] | course of the locally administered activity at the administration site after blood flow is restored ([1]; listed as Tc-99m-pertechnetate) | time at which arteriosclerotic plaque in the area of the aortic arch could be visualized in vivo [2]
[O]=[99Tc](=[O])(=[O])[O-] [Tc-99m pertechnetate] | accumulates in the salivary glands as well as the thyroid | flushed from the vessel directly after the blood flow was regenerated | flushed from the vessel wall immediately after the blood flow is restored | 
^99mTc Complex of Asp-Gly-Gly-Cys-Gly-Cys-Phe-(D-Trp)-Leu-Asp-Ile-Ile-Trp |  |  |  | 10 minutes p.i.

Reference: patent publication US20030119719A1, “Use of endothelin conjugates in therapy, new endothelin conjugates, agents that contain the latter, and process for their production” (priority 1996, published 2003)
